# ChEMBL document CHEMBL1151556, “Design and synthesis of new hypocholesterolemic organosilanes with antioxidant properties” (Bioorg Med Chem Lett, 1996)
# Tests used:
# Homo sapiens [1] = species on record: Homo sapiens; experiment: Compound was evaluated for the inhibition of human LDL oxidation mediated by copper(II).; format: functional
# [2] = biological target: Squalene monooxygenase (Sus scrofa); experiment: Compound was evaluated for the inhibition of pig liver microsomal squalene epoxidase.
# HepG2 = experiment: In vitro inhibition of cholesterol synthesis in HepG2 cells.; format: functional, cell-based; conditions: Homo sapiens
# Rattus norvegicus = experiment: Compound was evaluated in vivo for inhibition of cholesterol synthesis in rats upon oral administration.; format: functional
# HUVEC = experiment: (§1) Compound was evaluated for the inhibition of HUVEC-induced LDL oxidation; format: functional, cell-based; conditions: Homo sapiens
# Homo sapiens [3] = species on record: Homo sapiens; experiment: as §1; format: functional, organism-based
Compound,IC50 (Homo sapiens [1]; Homo sapiens) [µM],IC50 (Homo sapiens [1]) [µM],further results
CCN(C/C=C/C#CC(C)(C)C)Cc1cccc(OC[Si](C)(C)c2ccccc2C)c1,–,> 50,IC50 [2]: 0.03 µM; IC50 (HepG2): 0.12 µM; ED50 (Rattus norvegicus): 3.2 mg/kg; IC50 (HUVEC): 50 µM
CCN(C[Si](C)(C)c1ccc(C(F)(F)F)cc1)c1ccccc1,20,–,–
VITAMIN E,–,10,IC50 (Homo sapiens [3]): 13.6 µM
CCN(C/C=C/C#CC(C)(C)C)Cc1cccc(NC[Si](C)(C)c2ccccc2C)c1,–,20,IC50 (HepG2): 0.2 µM; ED50 (Rattus norvegicus): 10 mg/kg; IC50 (HUVEC): 7 µM
CC(C)(CNc1ccccc1)c1ccccc1,100,–,–
CCN(C[Si](C)(C)c1ccccc1)c1ccc(C(F)(F)F)cc1,100,–,–

# More lines, main results first:
IC50 (Homo sapiens [1]; Homo sapiens) [µM],IC50 (Homo sapiens [1]) [µM],Compound,further results
7.8,–,C[Si](C)(CNc1ccccc1)c1ccccc1,–
5.3,–,CC(C)(Sc1cc(C(C)(C)C)c(O)c(C(C)(C)C)c1)Sc1cc(C(C)(C)C)c(O)c(C(C)(C)C)c1 [PROBUCOL],–
3,–,COc1ccc(NC[Si](C)(C)c2ccccc2)cc1,–
15,–,CCN(C[Si](C)(C)c1ccccc1)c1ccccc1,–
